Assay results: US7504420B2, “Compounds which inhibit beta-secretase activity and methods of use” (CoMentis, Inc., priority 2005, dated 2009)
pIC50, pKi: −log10 of the molar value.

Experiments:
cathepsin D = cathepsin D (Homo sapiens, UniProt P07339); assay: Inhibition of cathepsin D catalytic activity (Ki); assay type: biochemical; settings: pH 4.0, 37° C., read-out: CDK
Protocol: A substrate peptide NH3-ELDLAVEFWHDR-CO2 (SEQ ID NO.:1) (used for inhibition assay of memapsin 2, memapsin 1, and cathepsin D) was dissolved at 2 mg/ml in DMSO and diluted 1:100 in 0.1 M sodium acetate, pH 4.0 just prior to assay. Inhibitor dissolved in DMSO was diluted into 0.1 M sodium acetate, pH 4.0 (1:100 dilution). A […] aliquot of the inhibitor solution in pH 4 buffer was combined with […] of 0.1 M sodium acetate containing 100-200 nM of memapsin 1, memapsin 2, or cathepsin D. Following a pre-incubation at 37° C., the proteolytic assay was initated by addition of […] of the substrate diluted into pH 4 buffer, and incubation continued at 37° C. Aliquots were removed at time intervals, and combined with an equal volume of MALDI-TOF matrix (α-hydroxycinnamic acid in acetone, 20 mg/ml) and immediately spotted in duplicate onto a stainless-steel MALDI sample plate. MALDI-TOF mass spectrometry was performed on a PE Biosystems Voyager DE instrument at the Molecular Biology Resource Center on campus. The instrument was operated at 25,000 accelerating volts in positive mode with a 150 ns delay. Ions with a mass-to-charge ratio (m/z) were detected in the range of 650-2000 atomic mass units. Data were analyzed by the Voyager Data Explorer module to obtain ion intensity data for mass species of substrates and corresponding products in a given mixture. Relative product formation was calculated as the ratio of signal intensity of the product to the sum of signal intensities of both product and the corresponding substrate. Relative product formed per unit time was obtained from non-linear regression analysis of the data representing the initial 15% formation of product using the model: 1−e^−kT, where k was the relative hydrolytic rate constant and T was time in seconds. Alternatively, relative hydrolytic rates were determined using a fluorogenic cleavage assay (Ermolieff, J. et al., Biochemistry, 39: 12450-12456 (2000)). Initial rates from either method were expressed relative to uninhibited controls and the inhibition constant Ki was determined by a non-linear fit to a tight-binding model of competitive inhibition (Bieth, J., Bayer-Symposium V: Proteinase Inhibitors, pp 463-469, Spinger-Varlag, Berlin (1994)). Results are shown in Table 1 above (M2K, CDK, and M1K columns represent, respectively, the K1 values obtained for memapsin 2, cathepsin D and memapsin 1).

[1] = tested on: Aβ production in Chinese hamster ovary cells that over-express human APP695 with the London and Swedish mutations; assay: Cellular Aβ IC50 determination (Aβ40 sandwich ELISA); settings: Cricetulus griseus, CHO, 24 h, read-out: Cell, Aβ40, CHO cells over-expressing human APP695 (London and Swedish mutations), 24 h
Protocol: The potency of compounds against memapsin 2 catalytic activity was determined in a cellular assay of Aβ production. […] Compounds are dissolved in DMSO to concentrations near 1 mM, and diluted into culture media to a final concentration near 4 μM (final 0.4% DMSO). Compounds were diluted serially and applied to cells in multi-well plates 48 h after seeding. Incubation was continued in 5% CO2 at 37 degrees C. for 24 h. Aliquots were removed and assayed for Aβ40 content using a sandwich ELISA (BioSource International). Amount of Aβ40 over the range of concentration of compounds, relative to control incubations, were fit to a 4-parameter IC50 model.

memapsin 2 = memapsin 2 (Homo sapiens, UniProt P56817); assay: Inhibition of memapsin 2 catalytic activity (Ki); assay type: biochemical; settings: memapsin 2, pH 4, 37° C.; read-out: M2K
Method in brief: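 Run at 37 °C and pH 4: compound and enzyme pre-incubated 20 min before FS-2 fluorogenic substrate started hydrolysis,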

Chain of cathepsin D (P07339 65-412, species assumed): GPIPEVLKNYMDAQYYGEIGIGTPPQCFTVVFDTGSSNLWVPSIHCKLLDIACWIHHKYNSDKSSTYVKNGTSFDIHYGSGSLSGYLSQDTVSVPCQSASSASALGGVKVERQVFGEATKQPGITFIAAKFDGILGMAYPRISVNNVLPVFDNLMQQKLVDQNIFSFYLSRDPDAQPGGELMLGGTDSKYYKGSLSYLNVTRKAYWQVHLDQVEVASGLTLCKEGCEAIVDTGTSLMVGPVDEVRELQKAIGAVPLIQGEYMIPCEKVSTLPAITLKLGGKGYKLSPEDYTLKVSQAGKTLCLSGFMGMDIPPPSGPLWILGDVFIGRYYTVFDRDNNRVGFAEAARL
Chain of memapsin 2 (P56817 46-501): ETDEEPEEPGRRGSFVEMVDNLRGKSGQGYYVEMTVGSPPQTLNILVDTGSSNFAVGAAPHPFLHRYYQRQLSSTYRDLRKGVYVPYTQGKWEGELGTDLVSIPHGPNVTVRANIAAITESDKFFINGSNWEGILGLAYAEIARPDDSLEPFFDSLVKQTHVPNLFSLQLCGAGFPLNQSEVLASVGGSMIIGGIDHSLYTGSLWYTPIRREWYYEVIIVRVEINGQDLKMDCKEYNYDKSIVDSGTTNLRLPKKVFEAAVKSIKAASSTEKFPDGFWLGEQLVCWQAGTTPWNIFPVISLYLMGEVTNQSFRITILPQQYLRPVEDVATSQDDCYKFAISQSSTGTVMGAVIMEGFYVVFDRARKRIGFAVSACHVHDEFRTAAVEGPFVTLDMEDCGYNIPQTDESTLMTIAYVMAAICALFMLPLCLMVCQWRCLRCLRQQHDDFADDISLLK

Row | SMILES | pKi (cathepsin D) | pIC50 [1] | pKi (memapsin 2)
1 | CC(NC(=O)c1cc(C(=O)NC(Cc2ccccc2)C(O)CNCc2cccc(C(F)(F)F)c2)cc(N(C)S(C)(=O)=O)c1)c1ccccc1 (stereo not drawn) [N1-(3-hydroxy-1-phenyl-4-(3-(trifluoromethyl)benzylamino)butan-2-yl)-5-(N-methylmethylsulfonamido)-N3-(1-phenylethyl)isophthalamide] | > 6.52 | > 6.00 | > 6.52
2 | CC(NC(=O)c1cc(C(=O)NC(Cc2ccccc2)C(O)CNCC2CCCNC2)cc(N(C)S(C)(=O)=O)c1)c1ccccc1 (stereo not drawn) [N1-(3-hydroxy-1-phenyl-4-(piperidin-3-ylmethylamino)butan-2-yl)-5-(N-methylmethylsulfonamido)-N3-(1-phenylethyl)isophthalamide] | < 6.30 | < 5.30 | < 6.30
3 | CC(NC(=O)c1cc(C(=O)NC(Cc2ccccc2)C(O)CNCc2cnccn2)cc(N(C)S(C)(=O)=O)c1)c1ccccc1 (stereo not drawn) [N1-(3-hydroxy-1-phenyl-4-(pyrazin-2-ylmethylamino)butan-2-yl)-5-(N-methylmethylsulfonamido)-N3-(1-phenylethyl)isophthalamide] | < 6.30 | > 6.00 | > 6.52
4 | COc1cccc(C(C)NCC(O)C(Cc2ccccc2)NC(=O)c2cc(C(=O)NC(C)c3cccc(OC)c3)cc(N(C)S(C)(=O)=O)c2)c1 (stereo not drawn) [N1-(3-hydroxy-4-(1-(3-methoxyphenyl)ethylamino)-1-phenylbutan-2-yl)-N3-(1-(3-methoxyphenyl)ethyl)-5-(N-methylmethylsulfonamido)isophthalamide] | > 6.52 | > 6.00 | > 6.52
5 | COc1ccccc1CCNCC(O)C(Cc1ccccc1)NC(=O)c1cc(C(=O)NC(C)c2ccccc2)cc(N(C)S(C)(=O)=O)c1 (stereo not drawn) [N1-(3-hydroxy-4-(2-methoxyphenethylamino)-1-phenylbutan-2-yl)-5-(N-methylmethylsulfonamido)-N3-(1-phenylethyl)isophthalamide] | > 6.52 | 5.30 to 6.00 | > 6.52
6 | Cc1csc(CN(C)C(=O)c2cccc(C(=O)NC(Cc3ccccc3)C(O)CNCc3cccc(OC(C)C)c3)c2)n1 (stereo not drawn) [N1-(3-hydroxy-4-(3-isopropoxybenzylamino)-1-phenylbutan-2-yl)-N3-methyl-N3-((4-methylthiazol-2-yl)methyl)isophthalamide] | > 6.52 | > 6.00 | > 6.52
7 | CC(C)c1cccc(CNCC(O)C(Cc2ccccc2)NC(=O)c2cc(C(=O)NC(C)c3ccccc3)cc(N(C)S(C)(=O)=O)c2)c1 (stereo not drawn) [N1-(3-hydroxy-4-(3-isopropylbenzylamino)-1-phenylbutan-2-yl)-5-(N-methylmethylsulfonamido)-N3-(1-phenylethyl)isophthalamide] | > 6.52 | > 6.00 | > 6.52
8 | Cc1csc(CN(C)C(=O)c2cccc(C(=O)NC(Cc3ccccc3)C(O)CNCc3cccc(C(C)C)c3)c2)n1 (stereo not drawn) [N1-(3-hydroxy-4-(3-isopropylbenzylamino)-1-phenylbutan-2-yl)-N3-methyl-N3-((4-methylthiazol-2-yl)methyl)isophthalamide] | > 6.52 | > 6.00 | > 6.52
9 | COc1cccc(CNCC(O)C(Cc2ccccc2)NC(=O)c2cccc(C(=O)N(C)C(C)c3nc(C)cs3)c2)c1 (stereo not drawn) [N1-(3-hydroxy-4-(3-methoxybenzylamino)-1-phenylbutan-2-yl)-N3-methyl-N3-(1-(4-methylthiazol-2-yl)ethyl)isophthalamide] | > 6.52 | > 6.00 | > 6.52

The next lines start with the values.

Row | pKi (cathepsin D) | pIC50 [1] | pKi (memapsin 2) | SMILES
10 | < 6.30 | < 5.30 | < 6.30 | CC(NC(=O)c1cc(C(=O)NC(Cc2ccccc2)C(O)CNCCN2CCCC2)cc(N(C)S(C)(=O)=O)c1)c1ccccc1 (stereo not drawn) [N1-(3-hydroxy-1-phenyl-4-(2-(pyrrolidin-1-yl)ethylamino)butan-2-yl)-5-(N-methylmethylsulfonamido)-N3-(1-phenylethyl)isophthalamide]
11 | < 6.30 | < 5.30 | < 6.30 | Cc1csc(CN(C)C(=O)c2cccc(C(=O)NC(Cc3ccccc3)C(O)CNCCN3CCCC3)c2)n1 (stereo not drawn) [N1-(3-hydroxy-1-phenyl-4-(2-(pyrrolidin-1-yl)ethylamino)butan-2-yl)-N3-methyl-N3-((4-methylthiazol-2-yl)methyl)isophthalamide]
12 | < 6.30 | < 5.30 | < 6.30 | CC(NC(=O)c1cc(C(=O)NC(Cc2ccccc2)C(O)CNCC2CCNCC2)cc(N(C)S(C)(=O)=O)c1)c1ccccc1 (stereo not drawn) [N1-(3-hydroxy-1-phenyl-4-(piperidin-4-ylmethylamino)butan-2-yl)-5-(N-methylmethylsulfonamido)-N3-(1-phenylethyl)isophthalamide]
13 | > 6.52 | > 6.00 | > 6.52 | CC(NC(=O)c1cc(C(=O)NC(Cc2ccccc2)C(O)CNCc2cnc3ccccc3c2)cc(N(C)S(C)(=O)=O)c1)c1ccccc1 (stereo not drawn) [N1-(3-hydroxy-1-phenyl-4-(quinolin-3-ylmethylamino)butan-2-yl)-5-(N-methylmethylsulfonamido)-N3-(1-phenylethyl)isophthalamide]
14 | < 6.30 | 5.30 to 6.00 | 6.30 to 6.52 | CC(NC(=O)c1cc(C(=O)NC(Cc2ccccc2)C(O)CNCCN2CCOCC2)cc(N(C)S(C)(=O)=O)c1)c1ccccc1 (stereo not drawn) [N1-(3-hydroxy-4-(2-morpholinoethylamino)-1-phenylbutan-2-yl)-5-(N-methylmethylsulfonamido)-N3-(1-phenylethyl)isophthalamide]
15 | > 6.52 | > 6.00 | > 6.52 | CC(C)Cc1cccc(CNCC(O)C(Cc2ccccc2)NC(=O)c2cc(C(=O)NC(C)c3ccccc3)cc(N(C)S(C)(=O)=O)c2)c1 (stereo not drawn) [N1-(3-hydroxy-4-(3-isobutylbenzylamino)-1-phenylbutan-2-yl)-5-(N-methylmethylsulfonamido)-N3-(1-phenylethyl)isophthalamide]
16 | > 6.52 | > 6.00 | 6.30 to 6.52 | COc1cccc(CNCC(O)C(Cc2ccccc2)NC(=O)c2cc(C(=O)NC(C)c3ccccc3)c(C)cc2C)c1 (stereo not drawn) [N1-(3-hydroxy-4-(3-methoxybenzylamino)-1-phenylbutan-2-yl)-4,6-dimethyl-N3-(1-phenylethyl)isophthalamide]
17 | < 6.30 | > 6.00 | > 6.52 | COc1cccc(CNCC(O)C(Cc2ccccc2)NC(=O)c2cc(C(=O)NC(C)c3nc(CO)co3)cc(N(C)S(C)(=O)=O)c2)c1 (stereo not drawn) [N1-(3-hydroxy-4-(3-methoxybenzylamino)-1-phenylbutan-2-yl)-N3-(1-(4-(hydroxymethyl)oxazol-2-yl)ethyl)-5-(N-methylmethylsulfonamido)isophthalamide]
18 | < 6.30 | > 6.00 | < 6.30 | COc1cccc(CNCC(O)C(Cc2ccccc2)NC(=O)c2cc(C(=O)NCc3cncc(O)c3)cc(N(C)S(C)(=O)=O)c2)c1 (stereo not drawn) [N1-(3-hydroxy-4-(3-methoxybenzylamino)-1-phenylbutan-2-yl)-N3-((5-hydroxypyridin-3-yl)methyl)-5-(N-methylmethylsulfonamido)isophthalamide]
19 | > 6.52 | > 6.00 | > 6.52 | COc1cccc(CNCC(O)C(Cc2ccccc2)NC(=O)c2cc(C(=O)N(C)Cc3nc(C)cs3)cc(N(C)S(C)(=O)=O)c2)c1 (stereo not drawn) [N1-(3-hydroxy-4-(3-methoxybenzylamino)-1-phenylbutan-2-yl)-N3-methyl-5-(N-methylmethylsulfonamido)-N3-((4-methylthiazol-2-yl)methyl)isophthalamide]
20 | 6.30 to 6.52 | < 5.30 | < 6.30 | COc1cccc(CCNCC(O)C(Cc2ccccc2)NC(=O)c2cccc(C(=O)N(C)Cc3nc(C)cs3)c2)c1 (stereo not drawn) [N1-(3-hydroxy-4-(3-methoxyphenethylamino)-1-phenylbutan-2-yl)-N3-methyl-N3-((4-methylthiazol-2-yl)methyl)isophthalamide]
21 | > 6.52 | > 6.00 | > 6.52 | COc1ccc(CCNCC(O)C(Cc2ccccc2)NC(=O)c2cc(C(=O)NC(C)c3ccccc3)cc(N(C)S(C)(=O)=O)c2)cc1 (stereo not drawn) [N1-(3-hydroxy-4-(4-methoxyphenethylamino)-1-phenylbutan-2-yl)-5-(N-methylmethylsulfonamido)-N3-(1-phenylethyl)isophthalamide]
